Test results reported in patent US20240300913A1, “FLAVONE DERIVATIVE AND USE THEREOF FOR IMPROVING PULMONARY FIBROSIS” (A-CHEMBIO CO., LTD, priority 2023, published 2024).

Assays:
HULEC-5a cells [1] = assay: Effect upon TGF-β1 treatment in Hulec-5a cells (western blot of protein levels); format: cell-based, human; details: Hulec-5a cells, 5 ng/mL TGF-β1 and compound, 24 hours, FIG. 31
Experimental: (§1) 1.2×10^6 Hulec-5a cells, derived from pulmonary vessels, were suspended in a medium, dispensed into a 100-mm plate, and incubated for 24 hours. After 24 hours of incubation, each plate was treated with TGF-β1 (10 ng/ml) alone or in combination with novel flavone derivative I at varying concentrations or a predetermined concentration and/or nintedanib (NIDB), a therapeutic drug for idiopathic pulmonary fibrosis and interstitial lung disease. After 3, 24, and 48 hours of incubation, the cells were lysed with RIPA lysis buffer ([50 mM Tris]-Cl (pH, 7.4), 1% NP-40, 150 mM NaCl, 1 mM EDTA, and 1 mM phenylmethylsulfonyl fluoride (PMSF)) containing MG-132 (10 μM, proteasome inhibitor, protect the HIF-1α subunit from proteasome degradation). Next, only the supernatant was collected by centrifugation (at 13,000 rpm for 7 minutes) at 4° C., and the proteins were separated by SDS-polyacrylamide gel electrophoresis (SDS-PAGE). The separated proteins were transferred to a polyvinylidene difluoride membrane (PVDF membrane), reacted in 5% nonfat dry milk for 2 hours, and then reacted with primary antibodies at 4° C. overnight. After overnight, the proteins further reacted with secondary antibodies corresponding to the respective primary antibodies. Then, the protein band was examined, according to the manufacturer's protocol, using an ECL kit.
The effect of novel flavone derivative II upon TGF-β1 treatment in Hulec-5a cells was evaluated in the same manner as in Example 1 above.
The effect of novel flavone derivative III upon TGF-β1 treatment in Hulec-5a cells was evaluated in the same manner as in Example 1 above.

A549 cells [2] = assay: Effect upon TGF-β1 treatment in A549 cells (western blot of protein levels); format: cell-based; details: 5 ng/mL TGF-β1 and compound, 24 hours, FIG. 30
Experimental: 3.5*10^5 A549 cells, derived from lung cancer, were suspended in a medium, dispensed into a 60-mm plate, and incubated for 48 hours. After 48 hours of incubation, each plate was treated with TGF-β1 (10 ng/ml) alone or in combination with novel flavone derivative I at varying concentrations or a predetermined concentration and/or nintedanib (NIDB), a therapeutic drug for idiopathic pulmonary fibrosis and interstitial lung disease as a positive control. […] Next, only the supernatant was collected by centrifugation (at 14,000 rpm for 10 minutes) at 4° C., and the proteins were separated by SDS-polyacrylamide gel electrophoresis (SDS-PAGE). The separated proteins were transferred to a polyvinylidene difluoride membrane (PVDF membrane), reacted in 5% nonfat dry milk for 3 hours, and then reacted with primary antibodies at 4° C. for 12 hours. After 12 hours, the proteins further reacted with secondary antibodies corresponding to the respective primary antibodies. Then, the protein band was examined, according to the manufacturer's protocol, using an ECL kit.
The effect of novel flavone derivative II upon TGF-β1 treatment in A549 cells was evaluated in the same manner as in Example 1 above. FIGS. 20 and 21 show the results thereof.
The effect of novel flavone derivative III upon TGF-β1 treatment in A549 cells was evaluated in the same manner as in Example 1 above.

A549 cells [3] = assay: MTT cytotoxicity evaluation in A549 cells; format: cell-based; details: all treatment concentrations up to 20 μM, incubated for 24, 48, and 72 hours, compared to untreated control
Experimental: To confirm the effect of novel flavone derivative I on cell viability, A549 cells, derived from lung cancer, were used to examine cell viability with MTT [3-(4,5-dimethylthiazol-2-yl)-2,5-diphenyltetrazolium bromide]. After being suspended in a medium, A549 cells were dispensed into a 96-well plate and incubated for 24 hours. After 24 hours, 200 μL of a medium containing 0 to 20 μM BGC was added to each well of the plate and incubated for 24 or 48 hours. After incubation, MTT was diluted (0.5 mg/ml) in phosphate-buffered saline (PBS). Then, 20 μL of the diluted MTT was dispensed into each well, and incubation was performed in a CO2 incubator for 4 hours. After 4 hours, the MTT solution was removed, and 200 μL of dimethyl sulfoxide (DMSO) was dispensed into each well to dissolve the formazan precipitate for 5 minutes. Next, the absorbance was measured at 595 nm.
(§2) Cytotoxicity tests of novel flavone derivative II (Achem II) on A549 cells, HULEC-5a cells, and HLF cells were performed in the same manner as in Example 1 above, using the MTT assay. The results thereof are shown in FIGS. 17 to 19 as cell viability (%) after 24, 48, and 72 hours compared to that of the control group, the untreated sample group.
as §2, with “III” for “II”, “III)” for “II)”, “27” for “17”, “29” for “19”

HLF cells [4] = assay: MTT cytotoxicity evaluation in HLF cells; format: cell-based, human; details: concentrations of 15 and 20 μM, incubated for 24 hours, compared to untreated control
Experimental: (§3) To confirm the effect of novel flavone derivative I on cell viability, human lung fibroblasts (HLF) were used to examine cell viability with MTT [3-(4,5-dimethylthiazol-2-yl)-2,5-diphenyltetrazolium bromide]. After being suspended in a medium, HLF cells were dispensed into a 96-well plate and incubated for 24 hours. […] After incubation, all media was removed, and MTT was diluted (0.5 mg/mL) in phosphate-buffered saline (PBS). Then, 200 μL of the diluted MTT was dispensed into each well, and incubation was performed in a CO2 incubator for 4 hours. After 4 hours, the MTT solution was removed, and 160 μL of dimethyl sulfoxide (DMSO) was dispensed into each well to dissolve the formazan precipitate for 30 minutes. Next, the absorbance was measured at 570 nm.
as §2
as §2, with “III” for “II”, “III)” for “II)”, “27” for “17”, “29” for “19”

HULEC-5a cells [5] = assay: MTT cytotoxicity evaluation in HULEC-5a cells; format: cell-based, human; details: compared to untreated control
Experimental: as §3, with “viability, HULEC-5a,” for “viability,”, “microvascular endothelial cells,” for “fibroblasts (HLF)”, “HULEC-5a” for “HLF”
as §2
as §2, with “III” for “II”, “III)” for “II)”, “27” for “17”, “29” for “19”

HLF cells [6] = assay: Effect upon TGF-β1 treatment in HLF cells (western blot of protein levels); format: cell-based, human; details: 5 ng/mL TGF-β1 and compound, 24 hours, FIG. 32
Experimental: as §1, with “After suspending 5×10^6 human lung fibroblast (HLF) cells in a medium, […]” for “1.2×10^6”, “[…]” for “in a”, “hours. […]” for “hours.”, “24” for “24 hours of incubation, each plate was treated with TGF-β1 (10 ng/ml) alone or in combination with novel flavone derivative I at varying concentrations or a predetermined concentration and/or nintedanib (NIDB), a therapeutic drug for idiopathic pulmonary fibrosis and interstitial lung disease. After 3, 24,”
The effect of novel flavone derivative II upon TGF-β1 treatment in HLF cells was evaluated in the same manner as in Example 1 above.
The effect of novel flavone derivative III upon TGF-β1 treatment in HLF cells was evaluated in the same manner as in Example 1 above.

COc1ccc(-c2c(-c3ccc(O)c(OC)c3)oc3cc(OC)c(OC)cc3c2=O)cc1 [novel flavone derivative III, 2-(4-hydroxy-3-methoxyphenyl)-6,7-dimethoxy-3-(4-methoxyphenyl)-4H-chromen-4-one]
levels of fibronectin, COL4, and COL3, increased by TGF-β1 treatment (HULEC-5a cells [1]): decreased | levels of fibronectin, COL4, and COL3, increased by TGF-β1 treatment (A549 cells [2]): decreased | cell viability (A549 cells [3]): ≥ 80% | cell viability (HLF cells [4]): ≤ 80% | cell viability (HULEC-5a cells [5]; concentration of 20 μM, incubated for 24 hours): ≤ 80% | cell viability (HULEC-5a cells [5]; concentrations up to 15 μM, incubated for 24, 48, and 72 hours): ≥ 80% | levels of fibronectin, COL4, COL1, α-SMA, HIF-1α, and NOX2, increased by TGF-β1 treatment (HLF cells [6]): decreased
